# Assay results as given in ChEMBL document CHEMBL3286206, “Conventional and microwave assisted synthesis of pyrazolone Mannich bases possessing anti-inflammatory, analgesic, ulcerogenic effect and antimicrobial properties” (Bioorg Med Chem Lett, 2014).
# Activity calls are given as the source filed them. No cut-off for these calls is given here.
# Legend:
# Rattus norvegicus [1] = assay: Antiinflammatory activity in albino rat assessed as inhibition of carrageenan-induced paw edema at […], po administered 1 hr prior to carrageenan challenge measured after 4 hrs relative to control; format: functional
# Rattus norvegicus [2] = assay: Antiinflammatory activity in albino rat assessed as inhibition of carrageenan-induced paw edema at […], po administered 1 hr prior to carrageenan challenge measured after 6 hrs relative to control; format: functional
# Rattus norvegicus [3] = assay: Ulcerogenic effect in po dosed rat assessed as lesions of bleedings; format: toxicity, organism-based; conditions: in vivo
# Micrococcus luteus [4] = assay: Antimicrobial activity against Micrococcus luteus assessed as zone of inhibition by agar diffusion method; format: functional
# Micrococcus luteus [5] = assay: Antimicrobial activity against Micrococcus luteus assessed as zone of inhibition >8 mm by twofold serial dilution method; format: functional
# Staphylococcus aureus [6] = assay: Antimicrobial activity against Staphylococcus aureus assessed as zone of inhibition by agar diffusion method; format: functional
# Staphylococcus aureus [7] = assay: Antimicrobial activity against Staphylococcus aureus assessed as zone of inhibition >8 mm by twofold serial dilution method; format: functional
# Escherichia coli [8] = assay: Antimicrobial activity against Escherichia coli assessed as zone of inhibition by agar diffusion method; format: functional
# Escherichia coli [9] = assay: Antimicrobial activity against Escherichia coli assessed as zone of inhibition >8 mm by twofold serial dilution method; format: functional
# Klebsiella pneumoniae [10] = assay: Antimicrobial activity against Klebsiella pneumoniae assessed as zone of inhibition by agar diffusion method; format: functional
# Klebsiella pneumoniae [11] = assay: Antimicrobial activity against Klebsiella pneumoniae assessed as zone of inhibition >8 mm by twofold serial dilution method; format: functional
# Mus musculus [12] = assay: Analgesic activity in mouse assessed as inhibition of acetic acid-induced writhing at 0.03 mM/kg
# Mus musculus [13] = assay: Analgesic activity in mouse assessed as inhibition of acetic acid-induced writhing measured as potency at 0.03 mM/kg; set-up: scale not given: the % may be the effect or the level left
# Rattus norvegicus [14] = assay: Antiinflammatory activity in albino rat assessed as inhibition of carrageenan-induced paw edema measured as paw thickness at 0.03 mmol/kg, po administered 1 hr prior to carrageenan challenge measured after 4 hrs (reference value: 1.260 +/- 0.172 mm)
# Rattus norvegicus [15] = assay: Antiinflammatory activity in albino rat assessed as inhibition of carrageenan-induced paw edema measured as paw thickness at 0.03 mmol/kg, po administered 1 hr prior to carrageenan challenge measured after 6 hrs (reference value: 1.081 +/- 0.257 mm)
# Micrococcus luteus [16] = assay: Antimicrobial activity against Micrococcus luteus assessed as growth inhibition by agar diffusion method; format: functional
# Staphylococcus aureus [17] = assay: Antimicrobial activity against Staphylococcus aureus assessed as growth inhibition by agar diffusion method; format: functional
SMILES,inhibition in vivo (Rattus norvegicus [1]),inhibition in vivo (Rattus norvegicus [2]),Activity (Rattus norvegicus [3]),diameter of the inhibition zone (DIZ) (Micrococcus luteus [4]),MIC (Micrococcus luteus [5]),diameter of the inhibition zone (DIZ) (Staphylococcus aureus [6]),MIC (Staphylococcus aureus [7]),diameter of the inhibition zone (DIZ) (Escherichia coli [8]),MIC (Escherichia coli [9]),diameter of the inhibition zone (DIZ) (Klebsiella pneumoniae [10]),MIC (Klebsiella pneumoniae [11]),inhibition (INH) (Mus musculus [12]),Activity (Mus musculus [13]),Activity (Rattus norvegicus [14]),Activity (Rattus norvegicus [15]),growth inhibition (GI) (Micrococcus luteus [16]),growth inhibition (GI) (Staphylococcus aureus [17])
CC1=NN(C(=O)c2cc3ccccc3oc2=O)C(=O)C1CNc1ccc([N+](=O)[O-])cc1 (configuration not stated),61.9%,72%,Non-toxic,15 mm,119 µM,12 mm,119 µM,15 mm,119 µM,12 mm,119 µM,59.74%,86.79%,1.32 mm,1.107 mm,–,–
CC1=NN(C(=O)c2cc3ccccc3oc2=O)C(=O)C1CNc1ccc(O)c(C(=O)O)c1 (configuration not stated),30.9%,50.9%,Non-toxic,12 mm,115 µM,12 mm,115 µM,12 mm,57.4 µM,12 mm,115 µM,35.06%,50.94%,2.396 mm,1.939 mm,–,–
O=C(O)c1cn(C2CC2)c2cc(N3CCNCC3)c(F)cc2c1=O [CIPROFLOXACIN],–,–,–,25 mm,0.59 µM,24 mm,9.43 µM,–,4.72 µM,17 mm,0.59 µM,–,–,–,–,–,–
CC1=NN(C(=O)c2cc3ccccc3oc2=O)C(=O)C1CNc1ccc(S(N)(=O)=O)cc1 (configuration not stated),68.9%,77.9%,Non-toxic,inactive,–,15 mm,55 µM,12 mm,27.5 µM,15 mm,55 µM,64.93%,94.33%,1.079 mm,0.873 mm,inactive,–
CC1=NN(C(=O)c2cc3ccccc3oc2=O)C(=O)C1CNc1ccc(Cl)cc1 (configuration not stated),43.5%,71.5%,Toxic,18 mm,61 µM,inactive,–,12 mm,30.5 µM,12 mm,61 µM,71.43%,103.78%,1.956 mm,1.125 mm,–,inactive
CC1=NN(C(=O)c2cc3ccccc3oc2=O)C(=O)C1CNc1ccc(O)cc1 (configuration not stated),35.6%,50.7%,Toxic,18 mm,128 µM,12 mm,63.9 µM,18 mm,63.9 µM,18 mm,63.9 µM,41.56%,60.38%,2.231 mm,1.947 mm,–,–
CC1=NN(C(=O)c2cc3ccccc3oc2=O)C(=O)C1CNc1c(O)cc(S(=O)(=O)O)c2ccccc12 (configuration not stated),21.6%,45.3%,–,inactive,–,15 mm,48 µM,15 mm,24 µM,18 mm,48 µM,54.55%,79.25%,2.715 mm,2.16 mm,inactive,–
CC1=NN(C(=O)c2cc3ccccc3oc2=O)C(=O)C1CNc1ccccn1 (configuration not stated),31.1%,50.3%,Toxic,12 mm,66.4 µM,15 mm,66.4 µM,15 mm,133 µM,15 mm,66.4 µM,29.87%,43.4%,2.389 mm,1.961 mm,–,–
COc1ccc2c(c1)c(CC(=O)O)c(C)n2C(=O)c1ccc(Cl)cc1 [INDOMETHACIN],67.8%,76%,–,–,–,–,–,–,–,–,–,68.83%,100%,1.144 mm,0.985 mm,–,–
CC1=NN(C(=O)c2cc3ccccc3oc2=O)C(=O)C1CNc1cccc(S(N)(=O)=O)c1 (configuration not stated),67.8%,79.9%,Non-toxic,inactive,–,18 mm,55 µM,12 mm,55 µM,12 mm,55 µM,33.77%,49.06%,1.116 mm,0.793 mm,inactive,–
COc1ccc(NCC2C(=O)N(C(=O)c3cc4ccccc4oc3=O)N=C2C)cc1 (configuration not stated),36.1%,55.1%,Toxic,inactive,–,15 mm,61.7 µM,18 mm,30.8 µM,18 mm,61.7 µM,32.47%,47.17%,2.215 mm,1.821 mm,inactive,–
CC1=NN(C(=O)c2cc3ccccc3oc2=O)C(=O)C1CNc1ccc(C(=O)O)cc1 (configuration not stated),63.6%,72.6%,Non-toxic,18 mm,119 µM,12 mm,59.6 µM,12 mm,119 µM,14 mm,119 µM,61.04%,88.68%,1.26 mm,1.081 mm,–,–
